In ChEMBL document CHEMBL4190390, “Rational Design of Novel 1,3-Oxazine Based β-Secretase (BACE1) Inhibitors: Incorporation of a Double Bond To Reduce P-gp Efflux Leading to Robust Aβ Reduction in the Brain” (J Med Chem, 2018):

Columns and labels:
[1] = Drug degradation of the compound at 40 degC/89 % relative humidity; type: physicochemical; conditions: read-out: Drug degradation
[2] = Dissociation constant, pKa of the compound by capillary electrophoresis method; type: physicochemical

Compound | degraded [1] [%] | pKa [2]
C[C@@]1(c2cc(NC(=O)c3ccc(C#N)cn3)ccc2F)C=C(CF)OC(N)=N1 | 0.06 | –
C[C@@]1(c2ccccc2F)CCOC(N)=N1 | – | 9.8
